From US20060069132A1, “Azolecarboxamide herbicides” (priority 2004, published 2006)

Columns and labels:
barnyardgrass [1] = test: Test B pre-/postemergence herbicide test; type: in vivo, Echinochloa crus-galli
Summary of the method: (§1)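 Pre: seeds sown, then sprayed. Post: 1–4-leaf plants (2–18 cm) sprayed at the same time. Paddy: flooded, treated at 2-leaf stage. Formulation: non-phytotoxic solvent with surfactant. Greenhouse 13–15 days; visual 0–100 score relative to controls.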

large crabgrass = test: Test B pre-/postemergence herbicide test; type: in vivo, Digitaria sanguinalis
Summary of the method: (§2)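 Response was scored visually 13 to 15 days after treatment against untreated greenhouse controls, 0 meaning no effect and 100 complete control. Formulations (solvent mixture plus surfactant) went onto soil after planting, onto foliage of 1- to 4-leaf plants, and onto 2-leaf plants in a flooded paddy set including rice and barnyardgrass.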

[2] = system: small flower umbrella sedge; test: Test B flooded paddy test; type: in vivo, Cyperus difformis; conditions: 1000 g ai/ha, scale 0 to 100 (0 no effect, 100 complete control)
Summary of the method: (§3)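 Read-out: visual comparison with controls, scored 0 to 100, where 100 means complete control and 0 no effect. Formulated chemicals were applied postemergence to plants 2–18 cm tall (1- to 4-leaf), or to flooded-paddy plants at the 2-leaf stage, then held 13 to 15 days under glass.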

pigweed = test: Test B pre-/postemergence herbicide test; type: in vivo, Amaranthus retroflexus
Summary of the method: as §2

lambsquarters = test: Test B pre-/postemergence herbicide test; type: in vivo, Chenopodium album
Summary of the method: as §2

velvetleaf = test: Test B pre-/postemergence herbicide test; type: in vivo, Abutilon theophrasti
Summary of the method: as §2

wheat = test: Test B postemergence herbicide test; type: in vivo, Triticum aestivum; set-up: key to Wheat plant response rating: 0 = no effect, 100 = complete control
Summary of the method: (§4)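 Postemergence plants were sprayed with formulated test chemicals at 2 to 18 cm height (1- to 4-leaf stage); paddy species were grown to the 2-leaf stage. After 13 to 15 days in a greenhouse, injury was rated visually against untreated controls on a 0–100 scale (0 = no effect, 100 = complete control).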

rice = test: Test B flooded paddy test; type: in vivo, Oryza sativa; conditions: 1000 g ai/ha, scale 0 to 100 (0 no effect, 100 complete control)
Summary of the method: as §4

morningglory = test: Test B pre-/postemergence herbicide test; type: in vivo, Ipomoea coccinea
Summary of the method: as §1

cocklebur = test: Test B pre-/postemergence herbicide test; type: in vivo, Xanthium strumarium
Summary of the method: as §1

wild oat = test: Test B postemergence herbicide test; type: in vivo, Avena fatua; conditions: scale 0 (no effect) to 100 (complete control)
Summary of the method: as §4

Surinam grass = test: Test B pre-/postemergence herbicide test; type: in vivo, Urochloa decumbens
Summary of the method: as §2

barnyardgrass [3] = test: Test B flooded paddy test; type: in vivo, Echinochloa crus-galli; conditions: 1000 g ai/ha, scale 0 to 100 (0 no effect, 100 complete control)
Summary of the method: as §3

ducksalad = test: Test B flooded paddy test; type: in vivo, Heteranthera limosa; conditions: 1000 g ai/ha, scale 0 to 100 (0 no effect, 100 complete control)
Summary of the method: as §3

giant foxtail = test: Test B pre-/postemergence herbicide test; type: in vivo, Setaria faberi
Summary of the method: as §2

[4] = 125 g ai/ha, 0 is no effect, 100 is complete control, preemergence
[5] = 125 g ai/ha, visual rating, scale 0 (no effect) to 100 (complete control), postemergence
[6] = Postemergence, 500 g ai/ha, scale 0 (no effect) to 100 (complete control)
[7] = Postemergence, 500 g ai/ha, visual rating after 13 to 15 days, scale 0 (no effect) to 100 (complete control)
[8] = Preemergence, 500 g ai/ha, scale 0 to 100
[9] = postemergence, 125 g ai/ha, visual rating, scale 0 (no effect) to 100 (complete control)
[10] = preemergence, 125 g ai/ha, 0 to 100 scale, 0 is no effect, 100 is complete control

SMILES: CCNC(=O)c1ccc(F)c(N(C(C)=O)C(=O)c2cc(C(C)(C)C)nn2CC)c1 [Compound 399]
- Plant response rating (0 to 100 scale), Barnyardgrass (barnyardgrass [1]; [4]): 90
- Barnyardgrass plant response rating (barnyardgrass [1]; [5]): 10
- Barnyardgrass plant response rating (barnyardgrass [1]; [6]): 40
- Plant response rating (0 to 100 scale), Crabgrass, Large (large crabgrass; [4]): 100
- Crabgrass, Large plant response rating (large crabgrass; [5]): 20
- Crabgrass, Large plant response rating (large crabgrass; [6]): 30
- Sedge, Umbrella plant response rating [2]: 80
- Plant response rating (0 to 100 scale), Pigweed (pigweed; [4]): 100
- Pigweed plant response rating (pigweed; [5]): 60
- Pigweed plant response rating (pigweed; [6]): 80
- Plant response rating (0 to 100 scale), Lambsquarters (lambsquarters; [4]): 100
- Lambsquarters plant response rating (lambsquarters; [5]): 80
- Lambsquarters plant response rating (lambsquarters; [6]): 100
- Plant response rating (0 to 100 scale), Velvetleaf (velvetleaf; [4]): 80
- Velvetleaf plant response rating (velvetleaf; [5]): 20
- Velvetleaf plant response rating (velvetleaf; [6]): 80
- Wheat plant response rating (wheat; [5]): 10
- Wheat plant response rating (wheat; 500 g ai/ha, scale 0 to 100, 0 no effect, 100 complete control, preemergence): 100
- Wheat plant response rating (wheat; [6]): 30
- Rice plant response rating (rice): 80
- Plant response rating (0 to 100 scale), Morningglory (morningglory; [4]): 10
- Morningglory plant response rating (morningglory; [5]): 20
- Morningglory plant response rating (morningglory; [6]): 40
- Plant response rating (0 to 100 scale), Cocklebur (cocklebur; [4]): 50
- Cocklebur plant response rating (cocklebur; [5]): 60
- Cocklebur plant response rating (cocklebur; [6]): 80
- Oat, Wild plant response rating (wild oat; 125 g ai/ha, visual rating, postemergence): 20
- Oat, Wild plant response rating (wild oat; Postemergence, 500 g ai/ha): 40
- Plant response rating (0 to 100 scale), Surinam Grass (Surinam grass; [4]): 90
- Surinam Grass plant response rating (Surinam grass; [5]): 20
- Surinam Grass plant response rating (Surinam grass; [6]): 40
- Barnyardgrass plant response rating (barnyardgrass [3]): 90
- Ducksalad plant response rating (ducksalad): 90
- Plant response rating (0 to 100 scale), Foxtail, Giant (giant foxtail; [4]): 100
- Foxtail, Giant plant response rating (giant foxtail; [5]): 30
- Foxtail, Giant plant response rating (giant foxtail; [6]): 50

SMILES: C#CCOC(=O)c1cccc(NC(=O)c2cc(C(C)(C)C)nn2CC)c1 [Compound 84]
- Plant response rating, Barnyardgrass (barnyardgrass [1]; [7]): 40
- Barnyardgrass plant response rating (barnyardgrass [1]; [8]): 0
- Barnyardgrass plant response rating (barnyardgrass [1]; [9]): 20
- Plant response rating, Barnyardgrass (barnyardgrass [1]; [10]): 0
- Plant response rating, Crabgrass, Large (large crabgrass; [7]): 50
- Crabgrass, Large plant response rating (large crabgrass; [8]): 0
- Crabgrass, Large plant response rating (large crabgrass; [9]): 20
- Plant response rating, Crabgrass, Large (large crabgrass; [10]): 0
- Sedge, Umbrella plant response rating ([2]; visual rating, 13 to 15 days): 70
- Plant response rating, Pigweed (pigweed; [7]): 100
- Pigweed plant response rating (pigweed; [9]): 80
- Plant response rating, Pigweed (pigweed; [10]): 0
- Plant response rating, Lambsquarters (lambsquarters; [7]): 60
- Lambsquarters plant response rating (lambsquarters; [9]): 0
- Plant response rating, Lambsquarters (lambsquarters; [10]): 0
- Plant response rating, Velvetleaf (velvetleaf; [7]): 100
- Velvetleaf plant response rating (velvetleaf; [9]): 60
- Plant response rating, Velvetleaf (velvetleaf; [10]): 0
- Plant response rating, Wheat (wheat; [7]): 30
- Wheat plant response rating (wheat; [9]): 20
- Rice plant response rating (rice; visual rating, 13 to 15 days): 0
- Plant response rating, Morningglory (morningglory; [7]): 60
- Morningglory plant response rating (morningglory; [9]): 30
- Plant response rating, Morningglory (morningglory; [10]): 0
- Plant response rating, Cocklebur (cocklebur; [7]): 100
- Cocklebur plant response rating (cocklebur; [9]): 20
- Plant response rating, Cocklebur (cocklebur; [10]): 0
- Plant response rating, Oat, Wild (wild oat; Postemergence, 500 g ai/ha, visual rating after 13 to 15 days): 20
- Oat, Wild plant response rating (wild oat; postemergence, 125 g ai/ha, visual rating): 20
- Plant response rating, Surinam Grass (Surinam grass; [7]): 60
- Surinam Grass plant response rating (Surinam grass; [9]): 50
- Plant response rating, Surinam Grass (Surinam grass; [10]): 0
- Barnyardgrass plant response rating (barnyardgrass [3]; visual rating, 13 to 15 days): 10
- Ducksalad plant response rating (ducksalad; visual rating, 13 to 15 days): 20
- Plant response rating, Foxtail, Giant (giant foxtail; [7]): 10
- Foxtail, Giant plant response rating (giant foxtail; [8]): 0
- Foxtail, Giant plant response rating (giant foxtail; [9]): 10
- Plant response rating, Foxtail, Giant (giant foxtail; [10]): 0
